Patent publication US9499519B2, “Fused pyrimidine compounds and use thereof” (Medivation Technologies, Inc., priority 2012, dated 2016)

How the values were obtained:
[1] = test system: Akt phosphorylation induced by IGF-1R; assay: Western blot analysis of Akt phosphorylation induced by IGF-1 in HT-29 cells; assay type: cell-based, Human; conditions: for Levels of phosphorylated AKT in treated cells (pAKT/actin): HT-29 cells, IGF-1; for p-AKT relative to levels with 0.1 nM compound: Table B2 lower part; for Normalized phosphorylated AKT (relative to actin) levels relative to 0.1 nM compound treatment: Table B2 upper part; for pAKT relative to 0.1 nM compound: derivatives of Cpd. No. 8b
Summary of the method: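 HT-29 cells grown 24 h in DME/F12 with 10% FBS, serum-starved 24 h, then exposed 2 h to compound at 0.1, 1, 10 or 100; controls received DMSO or 10 ng/mL IGF-1. Lysate soluble fractions quantified by BCA before western blotting for phospho-Akt.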

[2] = target: T1, IGF-1R (Homo sapiens, UniProt P08069); assay: In vitro IGF-1R enzymatic assay (ADP-Glo kinase assay); assay type: biochemical; conditions: activated IGF-1R
T1 construct: purchased Millipore 14-802
T1 sequence (P08069 31-1367): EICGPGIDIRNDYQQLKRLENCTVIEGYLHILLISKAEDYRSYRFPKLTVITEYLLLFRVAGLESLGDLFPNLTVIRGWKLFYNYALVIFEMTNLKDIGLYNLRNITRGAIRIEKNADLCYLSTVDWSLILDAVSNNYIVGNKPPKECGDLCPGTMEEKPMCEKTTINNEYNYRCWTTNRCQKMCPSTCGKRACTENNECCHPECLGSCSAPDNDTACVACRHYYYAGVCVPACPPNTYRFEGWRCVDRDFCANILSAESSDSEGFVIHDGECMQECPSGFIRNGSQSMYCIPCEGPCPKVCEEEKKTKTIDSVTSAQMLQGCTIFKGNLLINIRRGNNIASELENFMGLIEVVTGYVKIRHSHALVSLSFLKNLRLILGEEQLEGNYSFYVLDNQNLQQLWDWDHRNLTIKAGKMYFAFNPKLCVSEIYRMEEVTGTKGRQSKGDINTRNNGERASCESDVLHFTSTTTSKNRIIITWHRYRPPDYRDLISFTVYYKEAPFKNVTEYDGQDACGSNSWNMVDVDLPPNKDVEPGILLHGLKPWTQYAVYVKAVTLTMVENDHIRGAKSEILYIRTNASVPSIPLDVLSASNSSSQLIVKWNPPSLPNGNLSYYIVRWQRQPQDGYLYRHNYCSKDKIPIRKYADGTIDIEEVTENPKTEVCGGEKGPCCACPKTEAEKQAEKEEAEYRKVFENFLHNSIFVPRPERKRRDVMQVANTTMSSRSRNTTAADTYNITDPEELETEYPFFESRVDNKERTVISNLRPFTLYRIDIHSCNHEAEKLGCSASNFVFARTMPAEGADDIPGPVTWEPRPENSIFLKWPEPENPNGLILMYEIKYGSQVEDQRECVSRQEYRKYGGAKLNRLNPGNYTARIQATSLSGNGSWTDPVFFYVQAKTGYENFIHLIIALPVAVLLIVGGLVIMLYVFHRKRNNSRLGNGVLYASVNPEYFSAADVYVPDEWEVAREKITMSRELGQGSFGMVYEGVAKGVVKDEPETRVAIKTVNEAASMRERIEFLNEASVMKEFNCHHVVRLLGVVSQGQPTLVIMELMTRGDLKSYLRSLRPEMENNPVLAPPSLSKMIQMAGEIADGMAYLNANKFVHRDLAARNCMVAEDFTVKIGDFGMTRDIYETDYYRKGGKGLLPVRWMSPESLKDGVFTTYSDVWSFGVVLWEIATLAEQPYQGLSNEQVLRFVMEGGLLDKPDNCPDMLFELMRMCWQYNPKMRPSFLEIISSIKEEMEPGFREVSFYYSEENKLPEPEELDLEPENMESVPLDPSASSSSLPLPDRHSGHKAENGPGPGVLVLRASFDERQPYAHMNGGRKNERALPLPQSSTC
Procedure: (§1) IC50 values of the compounds of the invention against IGF-1R and IR were measured in vitro using an ADP-Glo kinase assay Kit (Promega). […] Kinase reactions in both assays were conducted at 30° C. for 20 min with increasing concentrations of compounds of the invention.
Additional compounds of the invention were screened against activated IGF-1R.

[3] = target: T2, IR (Homo sapiens, UniProt P06213); assay: In vitro IR enzymatic assay (ADP-Glo kinase assay); assay type: biochemical; conditions: activated IR
T2 construct: purchased Millipore 14-803
T2 sequence (P06213 28-1382): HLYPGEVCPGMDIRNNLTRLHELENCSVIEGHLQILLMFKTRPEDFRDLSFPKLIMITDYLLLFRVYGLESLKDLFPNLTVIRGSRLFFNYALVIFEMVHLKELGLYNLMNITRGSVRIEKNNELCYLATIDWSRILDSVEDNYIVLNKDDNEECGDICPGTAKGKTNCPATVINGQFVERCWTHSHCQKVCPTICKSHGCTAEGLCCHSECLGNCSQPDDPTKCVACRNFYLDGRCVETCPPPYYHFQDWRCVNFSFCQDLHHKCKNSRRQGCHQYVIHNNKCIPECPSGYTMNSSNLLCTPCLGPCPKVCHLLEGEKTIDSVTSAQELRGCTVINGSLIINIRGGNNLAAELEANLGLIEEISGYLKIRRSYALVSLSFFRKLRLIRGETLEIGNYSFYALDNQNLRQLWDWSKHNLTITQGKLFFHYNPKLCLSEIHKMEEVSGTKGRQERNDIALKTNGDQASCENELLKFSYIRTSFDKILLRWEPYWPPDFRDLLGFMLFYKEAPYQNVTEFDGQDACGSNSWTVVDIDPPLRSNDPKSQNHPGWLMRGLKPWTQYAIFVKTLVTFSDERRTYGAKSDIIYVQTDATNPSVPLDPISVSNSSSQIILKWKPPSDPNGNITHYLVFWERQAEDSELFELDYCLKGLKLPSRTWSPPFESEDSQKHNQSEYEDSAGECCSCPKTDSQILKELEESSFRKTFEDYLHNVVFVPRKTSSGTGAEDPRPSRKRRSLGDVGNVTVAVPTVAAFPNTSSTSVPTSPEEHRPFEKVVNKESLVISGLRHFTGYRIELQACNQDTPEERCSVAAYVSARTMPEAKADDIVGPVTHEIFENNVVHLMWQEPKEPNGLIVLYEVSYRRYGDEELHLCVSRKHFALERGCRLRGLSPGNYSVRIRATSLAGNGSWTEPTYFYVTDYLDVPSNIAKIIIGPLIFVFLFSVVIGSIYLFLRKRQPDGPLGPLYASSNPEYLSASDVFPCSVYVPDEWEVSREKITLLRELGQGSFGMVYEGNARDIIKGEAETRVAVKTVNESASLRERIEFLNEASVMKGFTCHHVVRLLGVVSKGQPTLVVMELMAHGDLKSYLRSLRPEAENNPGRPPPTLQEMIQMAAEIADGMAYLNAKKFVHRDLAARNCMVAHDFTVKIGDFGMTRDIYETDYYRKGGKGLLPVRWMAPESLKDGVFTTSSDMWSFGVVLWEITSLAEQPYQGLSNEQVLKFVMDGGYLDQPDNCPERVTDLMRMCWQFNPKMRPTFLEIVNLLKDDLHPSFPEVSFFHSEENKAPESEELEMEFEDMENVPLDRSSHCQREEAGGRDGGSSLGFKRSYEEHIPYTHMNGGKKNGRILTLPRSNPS
Procedure: as §1
Additional compounds of the invention were screened against activated IR.

[4] = target: T3, AXL (Homo sapiens, UniProt P30530); assay: Caliper kinase assay: AXL; conditions: 0.01 μM
T3 sequence (P30530 26-894): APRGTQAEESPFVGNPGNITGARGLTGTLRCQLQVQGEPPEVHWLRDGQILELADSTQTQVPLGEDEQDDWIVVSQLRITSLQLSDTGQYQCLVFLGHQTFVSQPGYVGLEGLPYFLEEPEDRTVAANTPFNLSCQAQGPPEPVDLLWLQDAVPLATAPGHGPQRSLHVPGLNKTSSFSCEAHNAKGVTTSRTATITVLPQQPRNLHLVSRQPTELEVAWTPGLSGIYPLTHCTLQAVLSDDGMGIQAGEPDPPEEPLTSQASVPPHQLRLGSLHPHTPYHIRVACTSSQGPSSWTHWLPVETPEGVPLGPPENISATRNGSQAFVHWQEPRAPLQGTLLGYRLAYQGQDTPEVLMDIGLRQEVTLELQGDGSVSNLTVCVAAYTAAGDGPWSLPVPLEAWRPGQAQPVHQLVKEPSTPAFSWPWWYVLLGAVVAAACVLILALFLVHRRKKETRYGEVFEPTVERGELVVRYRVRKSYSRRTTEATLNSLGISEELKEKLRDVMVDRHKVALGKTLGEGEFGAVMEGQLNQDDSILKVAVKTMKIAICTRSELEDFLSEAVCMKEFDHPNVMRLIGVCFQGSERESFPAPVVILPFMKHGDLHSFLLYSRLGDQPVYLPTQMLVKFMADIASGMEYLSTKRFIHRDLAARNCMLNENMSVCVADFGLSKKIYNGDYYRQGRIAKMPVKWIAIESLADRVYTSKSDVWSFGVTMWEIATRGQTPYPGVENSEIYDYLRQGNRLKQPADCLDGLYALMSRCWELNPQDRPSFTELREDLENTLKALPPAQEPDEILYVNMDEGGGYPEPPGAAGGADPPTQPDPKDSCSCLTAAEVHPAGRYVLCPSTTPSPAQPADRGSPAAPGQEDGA
Procedure: (§4) The compound was tested at concentrations of 1.0×10^−8 and 1.0×10^−9 M in the RapidKinase192™ panel in duplicate. […] The screening was performed using the Caliper EZReader2, a 4-sipper LabChip, and ProfilerPro Kinase Selectivity Assay Kits 1 and 2. The assay measures the conversion of a fluorescent peptide substrate to a phosphorylated product. Briefly, the reaction mixture was introduced through a capillary sipper onto the microfluidic chip, where the substrate and product were electrophoretically separated and detected by laser-induced fluorescence. The time-dependent fluorescence signal indicates the extent of the reaction.
(§5) The kinases tested were AurA, AurB, AurC, AXL, FAK2, IGF1R, InsR, Mer, MET, Trk B and Trk C.
(§6) The assays were conducted using the Caliper LabChip 3000 and a 12-sipper LabChip as described above.

[5] = target: NTRK2(TRKB) (Homo sapiens, UniProt Q16620); assay: Caliper kinase assay: NTRK2 (TRKB); conditions: Trk B, 0.01 μM
Procedure: as §4, §5, §6

[6] = target: TRKC(NTRK3) (Homo sapiens, UniProt Q16288); assay: Caliper kinase assay: TRKC (NTRK3); conditions: Trk C, 0.01 μM
Sequence of TRKC(NTRK3) (Q16288 32-839): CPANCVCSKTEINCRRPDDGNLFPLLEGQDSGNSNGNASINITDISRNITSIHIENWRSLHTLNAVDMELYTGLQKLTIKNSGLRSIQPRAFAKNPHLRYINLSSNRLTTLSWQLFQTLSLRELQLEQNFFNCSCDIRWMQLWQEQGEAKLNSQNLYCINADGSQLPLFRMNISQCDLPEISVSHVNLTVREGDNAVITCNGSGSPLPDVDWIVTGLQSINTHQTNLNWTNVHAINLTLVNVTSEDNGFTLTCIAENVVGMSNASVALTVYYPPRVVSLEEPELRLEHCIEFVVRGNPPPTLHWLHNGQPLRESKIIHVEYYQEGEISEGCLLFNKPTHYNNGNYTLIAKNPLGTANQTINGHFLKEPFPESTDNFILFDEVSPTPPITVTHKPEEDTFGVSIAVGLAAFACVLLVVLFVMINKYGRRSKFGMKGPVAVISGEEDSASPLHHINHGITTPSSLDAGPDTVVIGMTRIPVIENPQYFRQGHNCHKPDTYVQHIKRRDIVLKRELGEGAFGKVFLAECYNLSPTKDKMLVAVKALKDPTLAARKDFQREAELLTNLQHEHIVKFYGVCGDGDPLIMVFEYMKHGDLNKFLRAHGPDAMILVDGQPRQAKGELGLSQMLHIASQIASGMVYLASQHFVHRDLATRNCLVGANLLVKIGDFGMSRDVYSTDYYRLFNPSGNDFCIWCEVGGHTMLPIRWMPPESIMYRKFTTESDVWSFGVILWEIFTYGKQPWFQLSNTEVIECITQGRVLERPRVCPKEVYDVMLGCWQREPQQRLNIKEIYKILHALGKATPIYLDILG
Procedure: as §4, §5, §6

[7] = target: PYK2 (Homo sapiens, UniProt Q14289); assay: Caliper kinase assay: PYK2 (called FAK2); conditions: FAK2, 0.01 μM
Sequence of PYK2 (Q14289 whole entry): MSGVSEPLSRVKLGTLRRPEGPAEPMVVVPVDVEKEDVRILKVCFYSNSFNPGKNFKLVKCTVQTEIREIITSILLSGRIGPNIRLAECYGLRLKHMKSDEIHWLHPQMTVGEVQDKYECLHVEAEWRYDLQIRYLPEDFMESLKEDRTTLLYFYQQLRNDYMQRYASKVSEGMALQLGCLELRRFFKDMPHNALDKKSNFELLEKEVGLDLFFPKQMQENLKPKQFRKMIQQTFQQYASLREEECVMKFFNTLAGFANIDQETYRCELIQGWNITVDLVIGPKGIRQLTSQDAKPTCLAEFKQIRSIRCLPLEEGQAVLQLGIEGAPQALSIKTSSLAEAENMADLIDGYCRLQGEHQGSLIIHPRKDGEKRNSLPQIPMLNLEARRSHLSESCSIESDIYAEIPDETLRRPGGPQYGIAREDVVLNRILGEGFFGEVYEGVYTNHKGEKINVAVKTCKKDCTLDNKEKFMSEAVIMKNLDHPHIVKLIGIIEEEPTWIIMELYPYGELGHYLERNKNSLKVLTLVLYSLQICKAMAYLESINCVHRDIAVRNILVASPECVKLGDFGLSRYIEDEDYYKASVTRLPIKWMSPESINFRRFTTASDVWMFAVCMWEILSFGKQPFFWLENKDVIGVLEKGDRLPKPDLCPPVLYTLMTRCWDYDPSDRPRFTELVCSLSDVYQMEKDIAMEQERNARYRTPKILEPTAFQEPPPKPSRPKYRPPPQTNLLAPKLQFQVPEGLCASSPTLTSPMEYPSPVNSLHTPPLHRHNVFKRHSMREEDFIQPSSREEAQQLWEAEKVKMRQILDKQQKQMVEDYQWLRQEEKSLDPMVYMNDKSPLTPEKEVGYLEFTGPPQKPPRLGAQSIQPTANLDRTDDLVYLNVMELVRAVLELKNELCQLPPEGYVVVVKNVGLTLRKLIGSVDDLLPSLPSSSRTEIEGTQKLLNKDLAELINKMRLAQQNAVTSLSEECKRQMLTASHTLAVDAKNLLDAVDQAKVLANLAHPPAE
Procedure: as §4, §5, §6

[8] = target: Trk C (Homo sapiens, UniProt Q16288); assay: HotSpot kinase assay: Trk C; assay type: biochemical; conditions: 100 nM compound; HotSpot; read-out: % Enzyme Inhibition @ 100 nM Trk C
Sequence of Trk C (Q16288 32-839): as the sequence (Q16288 32-839) above
Procedure: (§2) Each compound was tested at a concentration of 0.1 μM in single duplicate mode against the 3 kinases. Compounds were prepared as 10 mM stock solutions in DMSO prior to use in the assay. […] IC50 values and curve fits were obtained using Prism (GraphPad Software).
(§3) The screening was performed using the “HotSpot” assay platform. The assay measures the conversion of a peptide substrate to ^33P-labelled phosphorylated product. Briefly, specific kinase/substrate pairs along with required cofactors were prepared in reaction buffer. Specifically, the substrate was prepared in reaction buffer (20 mM Hepes, pH 7.5; 10 mM MgCl2; 1 mM EGTA; 0.02% Brij35; 0.02 mg/mL BSA; 0.1 mM Na3VO4; 2 mM DTT; 1% DMSO), followed by delivery of any required cofactor to the resulting substrate solution. The corresponding kinase was delivered into the substrate solution and the reaction mixture was mixed gently. Compound was delivered into the reaction mixture, followed 15-20 minutes later by addition of a mixture of ATP (Sigma, St. Louis Mo.) and ^33P ATP (specific activity 0.01 μCi/μL final; Perkin Elmer, Waltham, Mass.) to a final concentration of 10 μM-30 μM to initiate the reaction. […] The percent of enzyme inhibition was calculated based on the percent of remaining kinase activity.
as §2, with “Kinase assays were performed using additional compounds against a panel of 4 kinases: AXL; c-Met; c-Mer; and Trk C. Each” for “Each”, “[…]” for “μM”, “4” for “3”

[9] = target: T3, AXL; assay: HotSpot kinase assay: AXL; assay type: biochemical; conditions: 100 nM compound, read-out: % Enzyme Inhibition @ 100 nM AXL
Procedure: as §2, with “Kinase assays were performed using additional compounds against a panel of 4 kinases: AXL; c-Met; c-Mer; and Trk C. Each” for “Each”, “[…]” for “μM”, “4” for “3”
as §3

[10] = target: c-Met (Homo sapiens, UniProt P08581); assay: HotSpot kinase assay: c-Met; assay type: biochemical; conditions: 100 nM compound, read-out: % Enzyme Inhibition @ 100 nM c-MET
Procedure: as §2, with “Kinase assays were performed using additional compounds against a panel of 4 kinases: AXL; c-Met; c-Mer; and Trk C. Each” for “Each”, “[…]” for “μM”, “4” for “3”
as §3

[11] = target: T4, c-Mer (Homo sapiens, UniProt Q12866); assay: HotSpot kinase assay: c-Mer; assay type: biochemical; conditions: 100 nM compound, read-out: % Enzyme Inhibition @ 100 nM c-MER
T4 sequence (Q12866 21-999): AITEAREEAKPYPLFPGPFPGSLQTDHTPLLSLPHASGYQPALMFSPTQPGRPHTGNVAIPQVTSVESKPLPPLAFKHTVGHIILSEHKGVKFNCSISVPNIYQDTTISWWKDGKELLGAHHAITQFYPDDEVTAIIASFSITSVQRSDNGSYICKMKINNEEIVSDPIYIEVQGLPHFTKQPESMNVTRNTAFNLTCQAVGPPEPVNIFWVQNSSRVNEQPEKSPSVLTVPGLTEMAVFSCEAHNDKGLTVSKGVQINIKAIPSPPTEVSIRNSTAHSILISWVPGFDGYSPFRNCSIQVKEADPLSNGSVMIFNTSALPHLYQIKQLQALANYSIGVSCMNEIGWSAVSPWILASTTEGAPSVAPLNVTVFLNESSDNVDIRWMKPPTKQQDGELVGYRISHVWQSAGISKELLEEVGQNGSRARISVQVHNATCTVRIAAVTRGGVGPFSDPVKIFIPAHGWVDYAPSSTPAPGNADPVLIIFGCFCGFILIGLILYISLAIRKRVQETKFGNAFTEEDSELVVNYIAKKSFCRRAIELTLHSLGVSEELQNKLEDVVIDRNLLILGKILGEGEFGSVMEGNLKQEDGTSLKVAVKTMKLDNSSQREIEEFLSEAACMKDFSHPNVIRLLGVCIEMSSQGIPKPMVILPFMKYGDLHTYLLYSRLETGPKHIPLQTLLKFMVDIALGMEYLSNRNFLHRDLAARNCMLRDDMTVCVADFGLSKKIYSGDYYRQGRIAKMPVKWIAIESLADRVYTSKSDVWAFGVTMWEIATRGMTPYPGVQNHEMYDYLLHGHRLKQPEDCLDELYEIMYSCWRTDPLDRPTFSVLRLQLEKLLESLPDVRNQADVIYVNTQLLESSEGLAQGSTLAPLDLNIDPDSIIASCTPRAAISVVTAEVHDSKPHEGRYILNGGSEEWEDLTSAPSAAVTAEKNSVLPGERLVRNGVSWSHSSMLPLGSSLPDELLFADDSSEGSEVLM
Procedure: as §2, with “Kinase assays were performed using additional compounds against a panel of 4 kinases: AXL; c-Met; c-Mer; and Trk C. Each” for “Each”, “[…]” for “μM”, “4” for “3”
as §3

O=C(Nc1ccc(F)nc1)C1CC(O)CN1c1nc2c(c(Nc3cc(C4CC4)[nH]n3)n1)CCC2 (racemic) [Compound 10a, (2S,4R)-1-(4-(5-cyclopropyl-1H-pyrazol-3-ylamino)-6,7-dihydro-5H-cyclopenta[d]pyrimidin-2-yl)-N-(6-fluoropyridin-3-yl)-4-hydroxypyrrolidine-2-carboxamide]
Levels of phosphorylated AKT in treated cells (pAKT/actin) ([1]; 0.1 nM compound): 2.28
p-AKT relative to levels with 0.1 nM compound ([1]; 0.1 nM): 1.0
Normalized phosphorylated AKT (relative to actin) levels relative to 0.1 nM compound treatment ([1]; 0.1 nM): 1.0
pAKT relative to 0.1 nM compound ([1]; 0.1 nM): 1.00
Levels of phosphorylated AKT in treated cells (pAKT/actin) ([1]; 1 nM compound): 0.54
p-AKT relative to levels with 0.1 nM compound ([1]; 1 nM): 0.2
Normalized phosphorylated AKT (relative to actin) levels relative to 0.1 nM compound treatment ([1]; 1 nM): 0.2
pAKT relative to 0.1 nM compound ([1]; 1 nM): 0.69
Levels of phosphorylated AKT in treated cells (pAKT/actin) ([1]; 10 nM compound): 0.00
p-AKT relative to levels with 0.1 nM compound ([1]; 10 nM): 0.0
Normalized phosphorylated AKT (relative to actin) levels relative to 0.1 nM compound treatment ([1]; 10 nM): 0.0
pAKT relative to 0.1 nM compound ([1]; 10 nM): 0.16
Levels of phosphorylated AKT in treated cells (pAKT/actin) ([1]; 100 nM compound): 0.01
p-AKT relative to levels with 0.1 nM compound ([1]; 100 nM): 0.0
Normalized phosphorylated AKT (relative to actin) levels relative to 0.1 nM compound treatment ([1]; 100 nM): 0.0
pAKT relative to 0.1 nM compound ([1]; 100 nM): 0.01
IC50 [2]: 0.033 µM
% Inh @ 30 nM Avg ([2]; 30 nM, average): 32%
IC50 [3]: 0.033 µM
inhibition at 0.03 µM ([3]; 30 nM, average, read-out: % Inh @ 30 nM Avg): 54%
inhibition of kinase [4]: strongly inhibited
inhibition of kinase [5]: strongly inhibited
inhibition of kinase [6]: strongly inhibited
inhibition of kinase [7]: strongly inhibited

O=C(Nc1ccc(F)nc1)C1CC(O)CN1c1nc2c(c(Nc3cc(C4CC4)[nH]n3)n1)CCC2 (racemic) [Compound 10d, 1-(4-(5-cyclopropyl-1H-pyrazol-3-ylamino)-6,7-dihydro-5H-cyclopenta[d]pyrimidin-2-yl)-N-(6-fluoropyridin-3-yl)-4-hydroxypyrrolidine-2-carboxamide]
pAKT relative to 0.1 nM compound ([1]; 1 nM): 0.84
pAKT relative to 0.1 nM compound ([1]; 10 nM): 0.23
pAKT relative to 0.1 nM compound ([1]; 100 nM): 0.01
inhibition of kinase [4]: strongly inhibited
inhibition of kinase [5]: strongly inhibited
inhibition of kinase [6]: strongly inhibited
inhibition of kinase [7]: strongly inhibited

CC(C)c1cc(Nc2nc(N3CCCC3C(=O)N3CCCCC3)nc3c2CCC3)n[nH]1 (stereo not shown) [Compound 73b, (1-(4-(5-isopropyl-1H-pyrazol-3-ylamino)-6,7-dihydro-5H-cyclopenta[d]pyrimidin-2-yl)pyrrolidin2--yl)(piperidin-1-yl)methanone]
IC50 [2]: 1.4 µM
IC50 [3]: 1.3 µM
inhibition at 0.1 µM [8]: > 60%
inhibition at 0.1 µM [9]: < 39%
inhibition at 0.1 µM [10]: < 39%
inhibition at 0.1 µM [11]: < 39%
